Results from patent US6348482B1, “Catechols as antimicrobial agents” (Merck & Co., Inc., priority 1999, dated 2002).
In brackets after ≈: the same amount, converted by molar mass.

Key:
[1] = target: aminoacyl-tRNA synthetases (aaRS); assay: aaRS charging and trichloroacetic acid precipitation assay (IC50), Sa enzyme; assay type: biochemical; conditions: aaRS from Sa; 20 min preincubation at 25 C
Method: (§1) IC50 determinations for the aminoacyl-tRNA synthetases (aaRS) isolated from pathogen or HeLa cells were carried out using a modification of the aaRS charging and trichloroacetic acid precipitation assay described previously (see examples: D. Kern et. al., Biochemie, 61, 1257-1272 (1979) and J. Gilbart et. al. Antimicrobial Agents and Chemotherapy, 37(1), 32-38 (1993)). The aaRS enzymes were prepared via standard cloning and expression methods and partially purified or partially purified from pathogen and HeLa cell extracts. The activity of each aaRS enzyme was standardized as trichloroacetic acid precipitable counts (cpm) obtained at 10 minutes reaction time at Km concentrations of substrates. For practical purposes, the minimal acceptable value is approximately 2000 cpm per 10 minute reaction.
(§2) Preincubations for IC50 determinations were initiated by incubating partially purified aaRS extracts in 50 mM HEPES (pH 7.5), 0.1 mM EDTA, 0.05 mg/ml bovine serum albumin, 10 mM dithiothreitol and 2.5% dimethyl sulfoxide with and without test compound (e.g. compound of the invention (preferably a compound of Formula I)) in a final volume of 20 microliters in a microtiter plate for 20 minutes at 25 C. Test compounds were typically present as serial dilutions in concentration ranges of 0.35 nM to 35 μM. Test compound solutions were prepared by dissolving test compound in 100% dimethyl sulfoxide and diluting to the final concentration with 50 mM HEPES, pH 7.5. IC50 determinations were typically performed in duplicate with each experiment containing 4-8 concentrations of inhibitor along with two no inhibitor controls.
(§3) IC50 incubations were initiated by supplementing the preincubation mixture to a final assay concentration of 10 mM MgCl2, 30 mM KCl, 10 mM KF, 50 mM HEPES (pH 7.5), 20 μM-500 mM ATP, 2-20 μM [^3H] amino acid, and 90-180 μM crude tRNA in a final volume of 35 microliters. The reaction was incubated at 25° C. for 5-20 minutes. At specified time points a 15 microliter aliquot was removed and added to a well of a Millipore filtration plate (Multiscreen-FB, MAFB NOB 10) containing 100 microliters of cold 5% (wt/vol) trichloroacetic acid. Trichloroacetic acid precipitable material was collected by filtration on Millipore Multiscreen filtration station, washed twice with cold 5% trichloroacetic acid, twice with water, and dried. Plates were typically allowed to air dry for several hours or they were baked at 50° C. in a vacuum oven for 30 minutes. The radioactivity on the dried plates was quantitated by the addition of Packard Microscint-20 to the wells and counting with a Packard TopCount scintillation counter.
(§4) Inhibitor activity was typically reported as a percentage of the control aaRS activity. The IC50 value was determined by plotting per cent activity versus compound concentration in the assay and identifying the concentration at which 50% of the activity was remaining.

[2] = target: aminoacyl-tRNA synthetases (aaRS); assay: aaRS charging and trichloroacetic acid precipitation assay (IC50), Ef enzyme; assay type: biochemical; conditions: aaRS from Ef; 20 min preincubation at 25 C
Method: as §1, §2, §3, §4

Sa = assay: Whole cell antimicrobial screen (MIC), Sa; assay type: cell-based; conditions: overnight incubation, 2-fold dilutions, read-out: MIC (μg/mL) Sa
Method: (§5) Compounds were tested for antimicrobial activity against a panel of organisms according to standard procedures described by the National Committee for Clinical Laboratory Standards (NCCLS document M7-A3, Vol. 13, No. 25, 1993/NCCLS document M27-P, Vol. 12, No. 25, 1992). Compounds were dissolved in 100% DMSO and were diluted to the final reaction concentration (0.1 μg/ml-500 μg/ml) in microbial growth media. In all cases the final concentration of DMSO incubated with cells is less than or equal to 1%. For minimum inhibitory concentration (MIC) calculations, 2-fold dilutions of compounds were added to wells of a microtiter plate containing 1×10^5 bacteria or fungal cells in a final volume of 200 lambda of an appropriate media (Mueller-Hinton Broth; Haemophilus Test Media; Mueller-Hinton Broth+5% Sheep Blood; or […]). Plates were incubated overnight at an appropriate temperature (30° C.-37° C.) and optical densities (measure of cell growth) were measured using a commercial plate reader. The MIC value is defined as the lowest compound concentration inhibiting growth of the test organism.

Efs = assay: Whole cell antimicrobial screen (MIC), Efs; assay type: cell-based; conditions: overnight incubation, 2-fold dilutions, read-out: MIC (μg/mL) Efs
Method: as §5

Efm = assay: Whole cell antimicrobial screen (MIC), Efm; assay type: cell-based; conditions: overnight incubation, 2-fold dilutions, read-out: MIC (μg/mL) Efm
Method: as §5

| IC50 [1] [nM] | IC50 [2] [nM] | MIC (Sa) [µg/mL] | MIC (Efs) [µg/mL] | MIC (Efm) [µg/mL] | SMILES |
| --- | --- | --- | --- | --- | --- |
| < 500 | < 500 | > 100 | > 100 | > 100 | O=C(NC(CO)C(=O)O)c1ccc(OCc2ccc(Cl)cc2Cl)c(OCc2nc3ccccc3[nH]2)c1 (stereo not shown) [130,968] |
| < 500 | < 500 | < 100 | 100 (≈ 192 µM) | 100 (≈ 192 µM) | CS(=O)(=O)NC(=O)c1ccc(OCc2nc3ccccc3[nH]2)c(OCc2ccc(Cl)cc2Cl)c1 [130,971] |
| < 500 | < 500 | > 100 | > 100 | > 100 | Clc1ccc(COc2ccccc2OCc2nc3ccccc3[nH]2)c(Cl)c1 [126,419] |
| < 500 | < 500 | < 10 | < 10 | < 10 | O=C(O)Cc1ccc(OCc2nc3ccccc3[nH]2)c(OCc2ccc(Cl)cc2Cl)c1 [130,976] |
| < 500 | < 500 | > 100 | < 100 | 100 (≈ 189 µM) | O=C(NC(CO)C(=O)O)c1ccc(OCc2nc3ccccc3[nH]2)c(OCc2ccc(Cl)cc2Cl)c1 (stereo not shown) [130,970] |
